Laboratory results from PMC11247487, “Discovery of Dual MER/AXL Kinase Inhibitors as Bifunctional Small Molecules for Inhibiting Tumor Growth and Enhancing Tumor Immune Microenvironment” (Journal of Medicinal Chemistry, 2024).
pIC50: −log10 of the molar value. Values joined by “and” are separate entries in the source; they are usually repeats but may differ in a detail not shown here. Identical values can stand only once. “Also recorded” adds a separate entry of the source. Like-named read-outs stand apart in the source and are kept apart here.

Tests used:
MC38 murine colon tumor = assay: MC38 syngeneic tumor model; type: in vivo, mice
Description: (§1) All mice were used between 6 and 7 weeks of age. […] Tumor cells were detected as free of Mycoplasma spp prior to injection into animals. […] Tumor growth was measured with an electronic caliper, and volumes were calculated as L × W × W/2. Tumor size and animal body weight were measured once a week after tumor cell inoculation. Tumor growth inhibition (% TGI) = [1 – ΔT/ΔC] × 100, where ΔT is the difference of average tumor volume on the measured day and day 0 of treated groups and ΔC is the difference of average tumor volume on the measured day and day 0 of control groups.

[1] = tested on: 4T1 murine triple-negative breast tumors; assay: 4T1 syngeneic tumor model; type: in vivo, mice; conditions: 50 mg/kg QD, FOTO
Description: as §1

[2] = tested on: Hepa1–6 murine liver tumors; assay: Hepa1–6 tumor model; type: in vivo, mice; conditions: 30 mg/kg orally QD, FOTO
Description: as §1

MER = target: T1, MER (Homo sapiens, UniProt Q12866); assay: MER enzyme inhibition assay (in-house Kinase-Glo); type: biochemical
T1 construct: A purified kinase (MER or AXL) was incubated with a compound or DMSO
T1 sequence (Q12866 21-999): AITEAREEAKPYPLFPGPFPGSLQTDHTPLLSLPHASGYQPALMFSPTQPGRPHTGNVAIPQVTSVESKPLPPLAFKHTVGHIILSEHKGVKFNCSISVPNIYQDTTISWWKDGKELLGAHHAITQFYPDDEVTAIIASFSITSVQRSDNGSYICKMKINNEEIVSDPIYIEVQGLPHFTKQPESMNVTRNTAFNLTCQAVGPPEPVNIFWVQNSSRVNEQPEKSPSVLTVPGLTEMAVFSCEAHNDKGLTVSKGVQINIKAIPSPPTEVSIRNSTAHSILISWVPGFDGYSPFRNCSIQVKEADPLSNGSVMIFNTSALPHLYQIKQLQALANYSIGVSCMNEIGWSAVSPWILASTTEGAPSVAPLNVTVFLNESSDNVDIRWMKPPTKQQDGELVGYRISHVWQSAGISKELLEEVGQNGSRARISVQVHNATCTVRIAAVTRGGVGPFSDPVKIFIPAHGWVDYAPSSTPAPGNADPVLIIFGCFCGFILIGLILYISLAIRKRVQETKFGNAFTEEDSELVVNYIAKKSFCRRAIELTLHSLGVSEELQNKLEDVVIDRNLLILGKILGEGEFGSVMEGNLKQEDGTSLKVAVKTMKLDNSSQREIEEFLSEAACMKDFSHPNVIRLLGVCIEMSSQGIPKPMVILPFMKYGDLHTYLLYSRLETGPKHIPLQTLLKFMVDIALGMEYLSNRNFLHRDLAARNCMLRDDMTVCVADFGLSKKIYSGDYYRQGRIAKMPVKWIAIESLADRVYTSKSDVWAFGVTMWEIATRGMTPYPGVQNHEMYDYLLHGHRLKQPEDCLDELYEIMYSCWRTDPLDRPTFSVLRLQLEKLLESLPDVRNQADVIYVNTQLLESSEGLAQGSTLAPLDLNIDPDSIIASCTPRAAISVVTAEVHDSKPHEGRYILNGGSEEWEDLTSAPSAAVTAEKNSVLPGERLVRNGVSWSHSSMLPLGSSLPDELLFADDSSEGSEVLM

[3] = tested on: MDA-MB-231 human triple-negative breast xenograft tumors; assay: MDA-MB-231 xenograft tumor model; conditions: 50 mg/kg QD, FOTO
Description: as §1

[4] = In vivo pharmacokinetics study; conditions: mice; for clearance at 24 h / half-life at 24 h / Vd at 24 h / bioavailability at 24 h / Tmax at 24 h: male, ICR, mouse, plasma; for clearance at 24 h: read-out: iv CL; for Vd at 24 h: read-out: iv Vss; for iv DNAUC(0–inf) / po DNAUC(0–inf) / po DNCmax: dose-normalized
Description: The animal studies were performed according to NHRI institutional animal care and committee-approved procedures. Male ICR mice (25–35 g) were obtained from BioLASCO (Taiwan Co., Ltd., Ilan, Taiwan). […] All samples were analyzed for the parent drug by LC-MS/MS. Plasma concentration data were analyzed with a noncompartmental method.

[5] = In vitro microsomal stability assay; type: in vitro ADME; conditions: 1 μM, mouse liver microsomes, percent remaining at 30 min
Description: All incubations were initiated with the addition of NADPH-generating system at 37 °C for 30 min. At 0 and the end of incubation, 100 μL of aliquots were taken from the incubation mixture and placed into centrifuge tubes containing 100 μL of ice-cold acetonitrile to terminate the metabolic reaction. The samples were vortexed and centrifuged, and then, the supernatant injected onto LC/MS. Percent of remaining of each compound was calculated by comparing peak areas at 30 min to that at the initiation of incubation.

Ba/F3-MER cells = assay: Cell viability assay (MTS); type: cell-based; conditions: 72 h
AXL = target: T2, AXL (Homo sapiens, UniProt P30530); assay: AXL enzyme inhibition assay (ADP-Glo); type: biochemical
T2 construct: A purified kinase (MER or AXL) was incubated with a compound or DMSO
T2 sequence (P30530 26-894): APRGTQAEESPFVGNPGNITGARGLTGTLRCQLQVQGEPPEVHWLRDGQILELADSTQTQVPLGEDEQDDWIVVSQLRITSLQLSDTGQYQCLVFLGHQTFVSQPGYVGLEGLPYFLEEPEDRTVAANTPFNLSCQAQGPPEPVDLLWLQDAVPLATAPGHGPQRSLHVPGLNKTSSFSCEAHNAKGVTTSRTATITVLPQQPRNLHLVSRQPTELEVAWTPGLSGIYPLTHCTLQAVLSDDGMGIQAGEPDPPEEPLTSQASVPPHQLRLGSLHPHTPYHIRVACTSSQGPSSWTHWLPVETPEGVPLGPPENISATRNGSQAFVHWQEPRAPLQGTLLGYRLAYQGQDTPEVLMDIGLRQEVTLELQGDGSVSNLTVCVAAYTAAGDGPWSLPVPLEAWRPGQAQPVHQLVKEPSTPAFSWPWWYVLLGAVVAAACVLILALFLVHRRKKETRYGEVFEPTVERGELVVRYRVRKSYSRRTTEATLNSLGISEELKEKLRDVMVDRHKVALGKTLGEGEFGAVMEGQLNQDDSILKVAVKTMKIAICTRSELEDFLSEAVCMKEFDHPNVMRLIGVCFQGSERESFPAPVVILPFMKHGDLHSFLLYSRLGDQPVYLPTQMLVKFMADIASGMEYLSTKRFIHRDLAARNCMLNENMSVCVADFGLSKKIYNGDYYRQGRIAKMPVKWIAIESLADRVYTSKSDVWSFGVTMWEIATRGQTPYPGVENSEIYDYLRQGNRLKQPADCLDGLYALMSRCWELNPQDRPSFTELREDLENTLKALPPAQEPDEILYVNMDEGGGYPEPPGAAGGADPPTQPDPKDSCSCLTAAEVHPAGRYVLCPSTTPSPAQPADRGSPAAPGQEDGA

COc1cc2nccc(Oc3ccc(NC(=O)c4cc5c(n(-c6ccccc6)c4=O)CCCC5=O)nc3)c2cc1OC [Compound 8, tamnorzatinib]
TGI, % of Vehicle Control (MC38 murine colon tumor; 50 mg/kg orally QD, FOTO): 45% and 44.8 ± 4.6% | TGI, % of Vehicle Control [1]: 12% and 12.2 ± 3.7% | TGI, % of Vehicle Control [2]: 17% and 16.7 ± 12.0% | pIC50 (MER): 8.01 | TGI, % of Vehicle Control [3]: 9% and 8.7 ± 4.7%

Cn1cc(-c2oc3ncnc(Oc4ccc(NC(=O)c5cccn(-c6ccc(F)cc6)c5=O)cc4)c3c2-c2cccc(N)c2)cn1 [Compound 22, N-(4-{[5-(3-Aminophenyl)-6-(1-methyl-1H-pyrazol-4-yl)furo[2,3-d]pyrimidin-4-yl]oxy}phenyl)-1-(4-fluorophenyl)-2-oxo-1,2-dihydropyridine-3-carboxamide]
body weight during treatment (MC38 murine colon tumor; MC38 tumor-bearing mice, 25-50 mg/kg orally, 3 weeks): No significant body weight loss; also recorded: well-tolerated without significant body weight loss | clearance at 24 h ([4]; iv 3 mg/kg): 2.9 mL/min/kg | half-life at 24 h ([4]; iv 3 mg/kg, read-out: iv T1/2 (converted)): 6 h | Vd at 24 h ([4]; iv 3 mg/kg): 1.2 L/kg | bioavailability at 24 h ([4]; iv and po 3 mg/kg): 19.2% | Tmax at 24 h ([4]; po 3 mg/kg): 4 h | half-life at 24 h ([4]; po 3 mg/kg, read-out: po T1/2 (converted)): 3.4 h | iv DNAUC(0–inf) ([4]; iv 3 mg/kg): 3,985.3 ng × hr/mL | po DNAUC(0–inf) ([4]; po 3 mg/kg): 764.0 ng·h/mL | po DNCmax ([4]; po 3 mg/kg): 38.7 ng/mL

CN1CCN(c2cccc(-c3c(-c4cnn(C)c4)oc4ncnc(Oc5ccc(NC(=O)c6cccn(-c7ccc(F)cc7)c6=O)cc5)c34)c2)CC1 [Compound 35, 1-(4-Fluorophenyl)-N-[4-({5-[3-(4-methylpiperazin-1-yl)phenyl]-6-(1-methyl-1H-pyrazol-4-yl)furo[2,3-d]pyrimidin-4-yl}oxy)phenyl]-2-oxo-1,2-dihydropyridine-3-carboxamide]
Microsomal stability @ 30 min [5]: 59% | pIC50 (Ba/F3-MER cells): 8.12 | pIC50 (AXL): 7.95 | bioavailability at 24 h ([4]; iv 2 mg/kg, po 10 mg/kg): 14.8% | clearance at 24 h ([4]; iv 2 mg/kg): 87.1 mL/min/kg | half-life at 24 h ([4]; iv 2 mg/kg, read-out: iv T1/2 (converted)): 2.4 h | Vd at 24 h ([4]; iv 2 mg/kg): 7.4 L/kg | Tmax at 24 h ([4]; po 10 mg/kg): 2.7 h | half-life at 24 h ([4]; po 10 mg/kg, read-out: po T1/2 (converted)): 4.3 h | iv DNAUC(0–inf) ([4]; iv 2 mg/kg): 221.0 ng·h/mL | po DNAUC(0–inf) ([4]; po 10 mg/kg): 32.8 ng·h/mL | po DNCmax ([4]; po 10 mg/kg): 4.5 ng/mL | pIC50 (MER): 7.85
